Test results from ChEMBL document CHEMBL4346735, “Discovery and pharmacological evaluation of indole derivatives as potent and selective RORγt inverse agonist for multiple autoimmune conditions” (Bioorg Med Chem Lett, 2019).
In brackets after ≈: the same amount, converted by molar mass.

Key:
[1] = molecular target: T1, Nuclear receptor ROR-gamma (Homo sapiens, UniProt P51449); test: Transactivation of recombinant GAL4-DBD fused RORgammat LBD (unknown origin) expressed in HEK293T cells incubated for 18 to 24 hrs by dual-Glo luciferase assay; format: cell-based
T1 sequence (P51449 whole entry): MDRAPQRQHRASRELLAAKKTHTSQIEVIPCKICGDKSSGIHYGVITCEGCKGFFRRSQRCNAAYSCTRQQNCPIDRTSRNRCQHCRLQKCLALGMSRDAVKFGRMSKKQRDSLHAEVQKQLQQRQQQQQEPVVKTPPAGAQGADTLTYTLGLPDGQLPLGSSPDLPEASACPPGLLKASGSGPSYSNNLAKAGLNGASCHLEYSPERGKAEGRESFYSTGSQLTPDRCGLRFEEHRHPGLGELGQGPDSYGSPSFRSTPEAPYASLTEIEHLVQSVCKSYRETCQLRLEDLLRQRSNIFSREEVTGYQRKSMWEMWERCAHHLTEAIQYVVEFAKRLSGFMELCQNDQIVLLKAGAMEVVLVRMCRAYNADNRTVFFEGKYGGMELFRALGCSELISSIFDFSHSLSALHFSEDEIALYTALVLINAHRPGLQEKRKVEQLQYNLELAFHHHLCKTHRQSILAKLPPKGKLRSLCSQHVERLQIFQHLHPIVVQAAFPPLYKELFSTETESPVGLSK

Cytochrome P450 1A2 = molecular target: T2, Cytochrome P450 1A2 (Homo sapiens, UniProt P05177); test: Inhibition of CYP1A2 in human liver microsomes using phenacetin as substrate preincubated for 5 mins followed by NADPH addition measured after 10 mins by LC-MS/MS analysis
T2 sequence (P05177 whole entry): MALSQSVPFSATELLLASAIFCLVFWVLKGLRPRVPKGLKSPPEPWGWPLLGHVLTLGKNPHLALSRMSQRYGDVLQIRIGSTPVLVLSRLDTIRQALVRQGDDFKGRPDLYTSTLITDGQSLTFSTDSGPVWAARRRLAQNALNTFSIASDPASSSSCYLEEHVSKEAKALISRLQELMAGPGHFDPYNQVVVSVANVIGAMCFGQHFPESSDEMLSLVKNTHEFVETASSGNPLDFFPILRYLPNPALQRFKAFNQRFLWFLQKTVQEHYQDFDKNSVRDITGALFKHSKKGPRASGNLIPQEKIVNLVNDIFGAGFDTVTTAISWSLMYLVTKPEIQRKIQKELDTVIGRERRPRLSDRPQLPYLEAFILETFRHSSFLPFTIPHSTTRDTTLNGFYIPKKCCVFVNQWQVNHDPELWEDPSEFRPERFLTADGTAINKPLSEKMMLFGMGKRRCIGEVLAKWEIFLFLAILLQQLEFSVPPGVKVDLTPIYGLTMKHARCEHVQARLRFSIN

Cytochrome P450 2C9 = Cytochrome P450 2C9 (Homo sapiens, UniProt P11712); test: Inhibition of CYP2C9 in human liver microsomes using diclofenac as substrate preincubated for 5 mins followed by NADPH addition measured after 10 mins by LC-MS/MS analysis
Cytochrome P450 2C19 = Cytochrome P450 2C19 (Homo sapiens, UniProt P33261); test: Inhibition of CYP2C19 in human liver microsomes using (S)-mephenytoin as substrate preincubated for 5 mins followed by NADPH addition measured after 40 mins by LC-MS/MS analysis
Cytochrome P450 2D6 = Cytochrome P450 2D6 (Homo sapiens, UniProt P10635); test: Inhibition of CYP2D6 in human liver microsomes using dextromethorphan as substrate preincubated for 5 mins followed by NADPH addition measured after 10 mins by LC-MS/MS analysis
Cytochrome P450 3A4 [2] = molecular target: T3, Cytochrome P450 3A4 (Homo sapiens, UniProt P08684); test: Inhibition of CYP3A4 in human liver microsomes using testosterone as substrate preincubated for 5 mins followed by NADPH addition measured after 10 mins by LC-MS/MS analysis
[3] = Cmax in mouse at 10 mg/kg, po; format: ADME, organism-based; parameters: dose 10 mg/kg, route oral; settings: in vivo
[4] = Tmax in mouse at 10 mg/kg, po; format: ADME, organism-based; settings: in vivo
[5] = AUC (0 to 24 hrs) in mouse at 10 mg/kg, po; format: ADME, organism-based; parameters: dose 10 mg/kg, time < 24 hr, route oral; settings: in vivo
[6] = Volume of distribution at steady state in mouse at 3 mg/kg, iv; format: ADME, organism-based; settings: in vivo, read-out: Vdss
[7] = Clearance in mouse at 3 mg/kg, iv; format: ADME, organism-based; settings: in vivo
[8] = Half life in mouse at 3 mg/kg, iv; format: ADME, organism-based; settings: in vivo
[9] = Oral bioavailability in mouse at 10 mg/kg; format: ADME, organism-based; settings: in vivo
[10] = molecular target: T4, Nuclear receptor ROR-alpha (Homo sapiens, UniProt P35398); test: Inhibition of GAL4-DBD fused RORalpha LBD (unknown origin) expressed in HEK293T cells; format: cell-based
T4 sequence (P35398 whole entry): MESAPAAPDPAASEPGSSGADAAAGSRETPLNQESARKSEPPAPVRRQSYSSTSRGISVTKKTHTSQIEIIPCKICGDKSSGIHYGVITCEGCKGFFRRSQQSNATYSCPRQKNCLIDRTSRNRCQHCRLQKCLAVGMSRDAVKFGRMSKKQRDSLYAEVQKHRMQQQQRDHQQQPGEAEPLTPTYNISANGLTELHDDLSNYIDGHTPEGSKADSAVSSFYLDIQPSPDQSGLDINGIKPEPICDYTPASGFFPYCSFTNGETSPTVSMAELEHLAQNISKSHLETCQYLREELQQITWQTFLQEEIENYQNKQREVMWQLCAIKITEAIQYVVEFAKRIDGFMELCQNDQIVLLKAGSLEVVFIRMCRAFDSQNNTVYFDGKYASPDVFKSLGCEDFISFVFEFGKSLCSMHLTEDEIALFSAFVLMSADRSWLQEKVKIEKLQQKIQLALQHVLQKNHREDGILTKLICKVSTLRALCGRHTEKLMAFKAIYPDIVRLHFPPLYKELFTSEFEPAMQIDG

[11] = Metabolic stability in mouse liver microsomes assessed as parent compound remaining at 1 uM preincubated for 5 mins followed by NADPH addition after 30 mins by LC-MS/MS analysis; format: ADME, Microsome; settings: read-out: Stability
[12] = Metabolic stability in rat liver microsomes assessed as parent compound remaining at 1 uM preincubated for 5 mins followed by NADPH addition after 30 mins by LC-MS/MS analysis; format: ADME, Microsome; settings: read-out: Stability
[13] = Metabolic stability in human liver microsomes assessed as parent compound remaining at 1 uM preincubated for 5 mins followed by NADPH addition after 30 mins by LC-MS/MS analysis; format: ADME, Microsome; settings: read-out: Stability
[14] = molecular target: T1, Nuclear receptor ROR-gamma; test: Inverse agonist activity at GST-tagged RORgammat LBD (unknown origin) using fluorescein-D22 co-activator peptide as substrate incubated for 1 hr by TR-FRET assay
[15] = Drug metabolism in mouse liver microsomes assessed as oxidation metabolic rate at 1 uM preincubated for 5 mins followed by NADPH addition after 30 mins by LC-MS/MS analysis; format: ADME, Microsome; settings: 0.5 h
[16] = Drug metabolism in rat liver microsomes assessed as oxidation metabolic rate at 1 uM preincubated for 5 mins followed by NADPH addition after 30 mins by LC-MS/MS analysis; format: ADME, Microsome; settings: 0.5 h
[17] = Drug metabolism in human pooled liver microsomes assessed as oxidation metabolic rate at 1 uM preincubated for 5 mins followed by NADPH addition after 30 mins by LC-MS/MS analysis; format: ADME, Microsome; settings: 0.5 h
[18] = AUC (0 to t) in Balb/c mouse at 3 mg/kg, iv administered as single dose by LC-MS/MS analysis; format: ADME, organism-based; settings: in vivo
[19] = Clearance in Balb/c mouse at 3 mg/kg, iv administered as single dose by LC-MS/MS analysis; format: ADME, organism-based; settings: in vivo
[20] = Half life in Balb/c mouse at 3 mg/kg, iv administered as single dose by LC-MS/MS analysis; format: ADME, organism-based; settings: in vivo
[21] = Oral bioavailability in Balb/c mouse at 10 mg/kg administered via gavage by LC-MS/MS analysis; format: ADME, organism-based; settings: in vivo
Cytochrome P450 3A4 [22] = molecular target: T3, Cytochrome P450 3A4; test: Inhibition of CYP3A4 in human liver microsomes using midazolam as substrate preincubated for 5 mins followed by NADPH addition measured after 10 mins by LC-MS/MS analysis
[23] = Solubility of the compound at pH 2.1; settings: buffer
[24] = Solubility of the compound at pH 4; settings: buffer
[25] = Solubility of the compound at pH 7.4; settings: buffer
[26] = molecular target: T5, Nuclear receptor ROR-gamma (Mus musculus, UniProt P51450); test: Inverse agonist activity at RORgammat in mouse splenocytes derived naive T cells assessed as suppression of T cell differentiation to Th17 cells by measuring IL-17 secretion in presence of […]/anti-IFNgamma/TGFbeta/IL-6 for 6 days by ELISA; format: cell-based
T5 sequence (P51450 whole entry): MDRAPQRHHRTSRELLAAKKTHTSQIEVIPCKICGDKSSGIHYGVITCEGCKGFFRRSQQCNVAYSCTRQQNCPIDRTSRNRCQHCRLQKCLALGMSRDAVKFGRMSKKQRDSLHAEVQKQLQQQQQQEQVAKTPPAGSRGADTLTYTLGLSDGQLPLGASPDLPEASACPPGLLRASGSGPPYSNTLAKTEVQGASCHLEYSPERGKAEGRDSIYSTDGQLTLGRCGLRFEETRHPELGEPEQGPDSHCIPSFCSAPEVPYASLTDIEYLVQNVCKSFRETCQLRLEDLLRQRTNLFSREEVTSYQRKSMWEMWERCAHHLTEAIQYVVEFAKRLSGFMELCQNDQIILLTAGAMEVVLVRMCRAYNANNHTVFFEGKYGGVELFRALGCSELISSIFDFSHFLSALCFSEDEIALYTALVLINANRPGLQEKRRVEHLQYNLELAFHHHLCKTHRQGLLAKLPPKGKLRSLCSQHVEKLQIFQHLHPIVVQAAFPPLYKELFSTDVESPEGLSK

Chain of Cytochrome P450 2D6 (P10635 whole entry): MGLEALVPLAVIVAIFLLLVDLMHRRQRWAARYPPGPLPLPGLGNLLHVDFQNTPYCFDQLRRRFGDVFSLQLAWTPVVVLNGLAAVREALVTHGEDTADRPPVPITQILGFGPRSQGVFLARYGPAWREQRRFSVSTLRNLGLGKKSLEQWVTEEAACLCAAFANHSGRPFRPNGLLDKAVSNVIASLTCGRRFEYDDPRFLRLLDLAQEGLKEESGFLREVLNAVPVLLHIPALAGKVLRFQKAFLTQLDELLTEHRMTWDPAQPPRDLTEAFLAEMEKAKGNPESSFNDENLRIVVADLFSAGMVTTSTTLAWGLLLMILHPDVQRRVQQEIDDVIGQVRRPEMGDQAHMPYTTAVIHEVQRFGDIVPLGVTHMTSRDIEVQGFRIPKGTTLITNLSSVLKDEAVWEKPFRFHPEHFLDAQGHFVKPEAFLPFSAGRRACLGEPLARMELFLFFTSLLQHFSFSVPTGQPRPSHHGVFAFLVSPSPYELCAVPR
T3 sequence (P08684 whole entry): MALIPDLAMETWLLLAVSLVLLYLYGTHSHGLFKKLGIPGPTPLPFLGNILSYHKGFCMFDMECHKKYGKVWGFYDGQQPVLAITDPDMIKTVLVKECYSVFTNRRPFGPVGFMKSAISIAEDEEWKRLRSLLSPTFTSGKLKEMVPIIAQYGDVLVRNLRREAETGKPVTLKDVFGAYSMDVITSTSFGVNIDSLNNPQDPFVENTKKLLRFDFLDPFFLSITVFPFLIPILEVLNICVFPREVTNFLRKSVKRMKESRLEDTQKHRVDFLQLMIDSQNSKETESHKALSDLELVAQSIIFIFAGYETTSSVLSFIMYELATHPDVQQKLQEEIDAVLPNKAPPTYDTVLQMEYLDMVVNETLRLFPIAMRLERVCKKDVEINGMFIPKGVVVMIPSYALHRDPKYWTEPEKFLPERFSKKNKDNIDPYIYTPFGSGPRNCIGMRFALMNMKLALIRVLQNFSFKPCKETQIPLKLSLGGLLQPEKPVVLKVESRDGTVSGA
Chain of Cytochrome P450 2C19 (P33261 whole entry): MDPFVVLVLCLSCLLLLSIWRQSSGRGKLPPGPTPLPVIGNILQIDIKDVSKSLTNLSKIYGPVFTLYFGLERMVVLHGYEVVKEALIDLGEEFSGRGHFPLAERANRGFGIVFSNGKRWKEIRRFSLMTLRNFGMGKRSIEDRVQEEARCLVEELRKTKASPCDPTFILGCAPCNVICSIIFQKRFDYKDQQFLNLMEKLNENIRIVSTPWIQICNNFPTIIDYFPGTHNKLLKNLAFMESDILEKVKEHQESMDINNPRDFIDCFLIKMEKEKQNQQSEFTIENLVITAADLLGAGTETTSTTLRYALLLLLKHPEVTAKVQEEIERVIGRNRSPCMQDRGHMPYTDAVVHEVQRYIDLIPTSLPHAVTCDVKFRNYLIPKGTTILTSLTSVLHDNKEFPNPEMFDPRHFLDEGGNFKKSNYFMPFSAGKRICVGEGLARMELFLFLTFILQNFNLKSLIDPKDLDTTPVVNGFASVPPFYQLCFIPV
Chain of Cytochrome P450 2C9 (P11712 whole entry): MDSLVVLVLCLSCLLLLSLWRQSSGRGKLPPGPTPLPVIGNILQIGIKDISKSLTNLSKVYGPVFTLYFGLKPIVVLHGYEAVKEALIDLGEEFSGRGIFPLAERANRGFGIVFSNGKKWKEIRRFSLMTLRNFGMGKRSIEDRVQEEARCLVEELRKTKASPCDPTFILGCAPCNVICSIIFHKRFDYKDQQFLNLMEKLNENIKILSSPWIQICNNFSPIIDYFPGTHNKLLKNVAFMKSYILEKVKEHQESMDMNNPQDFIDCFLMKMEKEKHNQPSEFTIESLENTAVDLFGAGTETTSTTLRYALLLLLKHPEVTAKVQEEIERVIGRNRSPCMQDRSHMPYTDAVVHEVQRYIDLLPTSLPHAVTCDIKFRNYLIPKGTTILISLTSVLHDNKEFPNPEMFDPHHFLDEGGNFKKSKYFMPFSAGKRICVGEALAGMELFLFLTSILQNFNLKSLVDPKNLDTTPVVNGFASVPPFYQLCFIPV

Row | Structure (SMILES) | IC50 [1] | IC50 (Cytochrome P450 1A2) | IC50 (Cytochrome P450 2C9) | IC50 (Cytochrome P450 2C19) | IC50 (Cytochrome P450 2D6) | IC50 (Cytochrome P450 3A4 [2]) | Cmax [3] | Tmax [4] | AUC(0-t) at 24 h [5] | Vd [6] | clearance [7] | half-life [8] | bioavailability [9] | IC50 [10] | remaining at 0.5 h, 1 µM [11] | remaining at 0.5 h, 1 µM [12] | remaining at 0.5 h, 1 µM [13] | IC50 [14] | IC50 (Cytochrome P450 3A4 [22]) | solubility [23] | further results
1 | O=C(O)c1ccc(-n2cc(C(=O)c3c(Cl)cccc3C(F)(F)F)c3cccnc32)c(F)c1 | 0.015 µM | > 50 µM | 17.2 µM | > 50 µM | > 50 µM | > 50 µM | 12.1 µM | 0.5 h | 35.1 µM·h | 2.4 L/kg | 11 mL/min/kg | 3.2 h | 100% | > 30 µM | 87% | 73% | 100% | – | – | – | –
2 | O=C(O)c1ccc(-n2cc(C(=O)c3c(Cl)cccc3Cl)c3ccccc32)cc1 | 0.028 µM | 29.9 µM | 3.8 µM | 67.6 µM | > 100 µM | 15.5 µM | – | – | – | – | – | – | – | – | 99% | 76% | 99% | 0.0016 µM | > 100 µM | < 1 µM | Drug metabolism [15]: < 0.04 nmol/min/mg; Drug metabolism [16]: 0.08 nmol/min/mg; Drug metabolism [17]: < 0.04 nmol/min/mg; AUC(0-t) [18]: 12.5 µM·h; clearance [19]: 17 mL/min/kg; half-life [20]: 4.6 h; bioavailability [21]: 53%; solubility [24]: < 1 µM; solubility [25]: 19 µM (≈ 7.79 µg/mL); IC50 [26]: 0.058 µM
3 | O=C(O)c1ccc(-n2cc(C(=O)c3c(Cl)cccc3Cl)c3c(F)cccc32)cc1 | 0.076 µM | > 50 µM | > 50 µM | > 50 µM | > 50 µM | 49 µM | – | – | – | – | – | – | – | – | 100% | 78% | 100% | 0.025 µM | > 50 µM | < 1 µM | solubility [24]: < 1 µM; solubility [25]: > 2000 µM
4 | O=C(O)c1ccc(-n2cc(C(=O)c3c(Cl)cccc3C(F)(F)F)c3c(F)cccc32)c(F)c1 | 0.016 µM | > 50 µM | 20.3 µM | > 50 µM | > 50 µM | – | 17.5 µM | 0.5 h | 46.5 µM·h | 1 L/kg | 4.6 mL/min/kg | 2.7 h | 62% | > 30 µM | 78% | 76% | 100% | – | – | – | –
